Results: patent US20170049678A1, “COMBINATION OF A HYALURONIC ACID AND OF A SULPHATED POLYSACCHARIDE” (PIERRE FABRE DERMO-COSMETIQUE, priority 2014, published 2017)

Test system: Normal human fibroblasts (NHF)
Assay: Fibroblast proliferation by BrdU incorporation
Type: cell-based
Details: single agent; Ascophyscient 10 and 100 μg/ml, sodium hyaluronate 100 and 1000 μg/ml; 44 hours, DMEM with 3% FCS; FIG. 2
Procedure: The technique used is that of incorporation of a nucleotide, 5-bromo-2′-deoxyuridine (BrdU), a thymidine analog, in the DNA of S-phase cells, at 37° C. This technique makes it possible to quantify cells of which the advance in the cell cycle is characteristic of a proliferating cell (S-phase or DNA synthesis phase). Normal human fibroblasts (NHF), isolated from surgical waste skin, are usually cultivated in Dulbecco's modified Eagle's medium (DMEM) with 10% fetal calf serum (FCS). In our experimental conditions, dilutions of the products to be tested are prepared in DMEM with 3% FCS. The cells are first deprived of FCS for 24 hours to stop cell multiplication before incubating them in the presence of the molecules to be evaluated for 44 hours at 37° C., in a 5% CO2 atmosphere. BrdU incorporation, proportional to cell proliferation rate, is evaluated by an anti-BrdU antibody system (Roche Applied Science). The corresponding absorbance (OD) is measured at 450 nm. This datum is thus proportional to cell proliferation rate. […] Analysis of the Results: • expressed as OD (proportional to BrdU incorporation and thus to cell proliferation rate) • expressed as percent stimulation: [formula] • expressed as standard error of the mean: SEM=standard deviation (SD)/√n Statistical analyses using unpaired bilateral Student's t-test were carried out on the raw OD values. […]

sodium hyaluronate
fibroblast proliferation (BrdU incorporation, OD 450 nm): moderate effect on fibroblast proliferation
